From patent publication US9884868B2, “TGF-beta inhibitors” (Rigel Pharmaceuticals, Inc., priority 2015, dated 2018) come the findings set out here.

Like-named read-outs stand apart in the source and are kept apart here.

The term IC50 denotes the concentration that inhibits the measured activity by half.

For one test, the target named is HIS-TGF-βR2 WT (Homo sapiens (Human), UniProt P37173). Put plainly: HTRF probe displacement assay with HIS-TGF-βR2 WT. (In TR-FRET formats the signal depends on donor and acceptor labels being close together.)
Another test addresses HIS-TGF-βR1 T204D (Homo sapiens (Human), UniProt P36897, T204D). Put plainly: HTRF probe displacement assay with HIS-TGF-βR1 T204D.
The mark [1] stands for this setting: read-out: TGFBr2 IC50, HTRF probe displacement, 1 nM HIS-TGF-βR2 WT, 1 hour at room temperature.
Setting [2] is: read-out: TGFbr1 IC50, HTRF probe displacement, 1 nM HIS-TGF-βR1 T204D, 1 hour at room temperature.

Chain of HIS-TGF-βR2 WT (P37173 23-567): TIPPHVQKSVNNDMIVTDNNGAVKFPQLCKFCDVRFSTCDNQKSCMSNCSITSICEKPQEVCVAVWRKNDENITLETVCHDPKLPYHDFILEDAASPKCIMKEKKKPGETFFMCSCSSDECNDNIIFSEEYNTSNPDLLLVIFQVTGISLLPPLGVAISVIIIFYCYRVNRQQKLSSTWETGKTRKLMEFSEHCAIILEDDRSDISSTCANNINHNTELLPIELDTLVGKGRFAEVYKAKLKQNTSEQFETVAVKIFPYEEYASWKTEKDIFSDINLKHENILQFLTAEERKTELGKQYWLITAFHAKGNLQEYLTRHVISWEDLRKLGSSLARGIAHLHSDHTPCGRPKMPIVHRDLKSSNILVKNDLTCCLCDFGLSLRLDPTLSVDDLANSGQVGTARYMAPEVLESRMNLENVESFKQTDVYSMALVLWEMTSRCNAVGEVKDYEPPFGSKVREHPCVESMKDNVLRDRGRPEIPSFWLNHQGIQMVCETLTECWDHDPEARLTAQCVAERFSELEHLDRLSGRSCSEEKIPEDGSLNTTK
Chain of HIS-TGF-βR1 T204D (P36897 34-503 T204D): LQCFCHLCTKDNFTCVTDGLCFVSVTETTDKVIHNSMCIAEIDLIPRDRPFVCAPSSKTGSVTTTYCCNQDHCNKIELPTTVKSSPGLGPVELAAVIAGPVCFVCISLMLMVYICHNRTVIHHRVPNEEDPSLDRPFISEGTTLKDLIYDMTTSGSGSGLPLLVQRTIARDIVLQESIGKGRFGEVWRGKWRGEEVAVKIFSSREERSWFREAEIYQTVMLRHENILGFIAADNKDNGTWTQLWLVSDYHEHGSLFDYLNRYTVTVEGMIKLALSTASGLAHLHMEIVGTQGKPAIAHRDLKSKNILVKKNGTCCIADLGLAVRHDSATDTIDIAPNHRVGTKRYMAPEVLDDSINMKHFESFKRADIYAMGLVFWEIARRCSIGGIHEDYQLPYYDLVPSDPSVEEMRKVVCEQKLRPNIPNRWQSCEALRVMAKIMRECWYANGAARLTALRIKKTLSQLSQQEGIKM

Consider `NC(=O)c1cnc2ccc(-c3c(-c4ccc(F)c(Cl)c4)ncn3C3CC(F)(F)C3)nn12` [118′, 6-(4-(3-chloro-4-fluorophenyl)-1-(3,3-difluorocyclobutyl)-1H-imidazol-5-yl)imidazo[1,2-b]pyridazine-3-carboxamide], for which the IC50 at HIS-TGF-βR2 WT (setting [1]) was greater than 15 µM; at HIS-TGF-βR1 T204D (setting [2]) it was 0.0014 µM.

`O=C(NC1CC1)c1cnc2ccc(-c3c(-c4ccc(F)cc4)ncn3CC(F)F)nn12` [208′, N-cyclopropyl-6-(1-(2,2-difluoroethyl)-4-(4-fluorophenyl)-1H-imidazol-5-yl)imidazo[1,2-b]pyridazine-3-carboxamide]: the IC50 is greater than 15 µM on HIS-TGF-βR2 WT (setting [1]) and 0.0012 µM at HIS-TGF-βR1 T204D (setting [2]).

For `N#Cc1cnc2ccc(-c3c(-c4ccc(F)cc4)ncn3CC(O)C(F)(F)F)cn12` (centres unmarked) [93′, 6-(4-(4-fluorophenyl)-1-(3,3,3-trifluoro-2-hydroxypropyl)-1H-imidazol-5-yl)imidazo[1,2-a]pyridine-3-carbonitrile], the IC50 at HIS-TGF-βR2 WT is greater than 15 µM; at HIS-TGF-βR1 T204D it was 0.576 µM.

In the case of `CC(C)OC(=O)NCc1cnc2ccc(-c3c(-c4ccc(F)cc4)ncn3CC(F)F)nn12` [Example 201′, isopropyl ((6-(1-(2,2-difluoroethyl)-4-(4-fluorophenyl)-1H-imidazol-5-yl)imidazo[1,2-b]pyridazin-3-yl)methyl)carbamate], the IC50 was greater than 15 µM at HIS-TGF-βR2 WT (setting [1]) and 0.005 µM at HIS-TGF-βR1 T204D (setting [2]).

For `NC(=O)c1cnc2ccc(-c3c(-c4ccc(F)cc4)nc4n3CCN(CC(F)F)C4)cn12` [Example 294′, 6-(7-(2,2-difluoroethyl)-2-(4-fluorophenyl)-5,6,7,8-tetrahydroimidazo[1,2-a]pyrazin-3-yl)imidazo[1,2-a]pyridine-3-carboxamide], the IC50 was greater than 15 µM on HIS-TGF-βR2 WT (setting [1]) and 0.0272 µM on HIS-TGF-βR1 T204D (setting [2]).

Turning to `N#Cc1cnc2ccc(-c3c(-c4ccc(F)c(Cl)c4)ncn3CCN3CCOCC3)cn12` [95′, 6-(4-(3-chloro-4-fluorophenyl)-1-(2-morpholinoethyl)-1H-imidazol-5-yl)imidazo[1,2-c]pyridine-3-carbonitrile], the IC50 was greater than 15 µM on HIS-TGF-βR2 WT (setting [1]) and 0.0768 µM on HIS-TGF-βR1 T204D (setting [2]).

For `NC(=O)c1cnc2ccc(-c3c(-c4ccc(F)cc4)ncn3C3CC(F)(F)C3)cn12` [180′, 6-(1-(3,3-difluorocyclobutyl)-4-(4-fluorophenyl)-1H-imidazol-5-yl)imidazo[1,2-a]pyridine-3-carboxamide], the IC50 at HIS-TGF-βR2 WT (setting [1]) is greater than 15 µM; on HIS-TGF-βR1 T204D (setting [2]) it was 0.0037 µM.

For `CN(C)CCCn1cnc(-c2ccc(F)cc2)c1-c1ccc2ncc(C(N)=O)n2c1` [163′, 6-(1-(3-(dimethylamino)propyl)-4-(4-fluorophenyl)-1H-imidazol-5-yl)imidazo[1,2-a]pyridine-3-carboxamide], the figures for the IC50 at HIS-TGF-βR2 WT (setting [1]) and on HIS-TGF-βR1 T204D (setting [2]) were greater than 15 µM and 0.0319 µM, respectively.

Consider `NC(=O)c1cnc2ccc(-c3c(-c4ccc(F)c(Cl)c4)ncn3CCC(F)(F)F)nn12` [115′, 6-(4-(3-chloro-4-fluorophenyl)-1-(3,3,3-trifluoropropyl)-1H-imidazol-5-yl)imidazo[1,2-b]pyridazine-3-carboxamide], for which the IC50 was greater than 15 µM on HIS-TGF-βR2 WT and 0.0046 µM on HIS-TGF-βR1 T204D.

Turning to `N#Cc1cnc2ccc(-c3c(-c4ccc(F)cc4)ncn3[C@]34CC5CC(C[C@](O)(C5)C3)C4)nn12` (single isomer, unassigned) [269′], the results for the IC50 at HIS-TGF-βR2 WT (setting [1]) and at HIS-TGF-βR1 T204D (setting [2]) were greater than 15 µM and 1.2 µM, respectively.

In the case of `NC(=O)c1cnc2ccc(-c3c(-c4ccc(F)c(Cl)c4)ncn3C3CCOCC3)nn12` [144′, 6-(4-(3-chloro-4-fluorophenyl)-1-(tetrahydro-2H-pyran-4-yl)-1H-imidazol-5-yl)imidazo[1,2-b]pyridazine-3-carboxamide], the IC50 on HIS-TGF-βR2 WT (setting [1]) is greater than 15 µM; at HIS-TGF-βR1 T204D (setting [2]) it was 0.0041 µM.

Take `CC(C)(C)NC(=O)N1CC(n2cnc(-c3ccc(F)cc3)c2-c2ccc3ncc(C(N)=O)n3n2)C1` [Example 195′, 6-(1-(1-(tert-butylcarbamoyl)azetidin-3-yl)-4-(4-fluorophenyl)-1H-imidazol-5-yl)imidazo[1,2-b]pyridazine-3-carboxamide]: the IC50 at HIS-TGF-βR2 WT (setting [1]) is greater than 15 µM; on HIS-TGF-βR1 T204D (setting [2]), 0.436 µM.

Turning to `COC(=O)Nc1cnc2ccc(-c3c(-c4ccc(F)cc4)ncn3CC(F)F)nn12` [Example 211′, methyl (6-(1-(2,2-difluoroethyl)-4-(4-fluorophenyl)-1H-imidazol-5-yl)imidazo[1,2-b]pyridazin-3-yl)carbamate], the values for the IC50 on HIS-TGF-βR2 WT (setting [1]) and on HIS-TGF-βR1 T204D (setting [2]) were greater than 15 µM and 0.0045 µM, respectively.

Take `Fc1ccc(-c2ncn(CC(F)F)c2-c2ccc3ncc(CNCC(F)F)n3c2)cc1` [Example 275′, N-((6-(1-(2,2-difluoroethyl)-4-(4-fluorophenyl)-1H-imidazol-5-yl)imidazo[1,2-a]pyridin-3-yl)methyl)-2,2-difluoroethanamine]: the IC50 was greater than 15 µM on HIS-TGF-βR2 WT (setting [1]) and 0.121 µM on HIS-TGF-βR1 T204D (setting [2]).

As for `O=C(NC1CC1)c1cnc2ccc(-c3c(-c4ccc(F)cc4)ncn3CC(F)F)cn12` [Example 279′, N-cyclopropyl-6-(1-(2,2-difluoroethyl)-4-(4-fluorophenyl)-1H-imidazol-5-yl)imidazo[1,2-a]pyridine-3-carboxamide], the IC50 at HIS-TGF-βR2 WT (setting [1]) is greater than 15 µM; on HIS-TGF-βR1 T204D (setting [2]), 0.0095 µM.

For the molecule `CC(=O)Nc1nc(-c2ccc(F)cc2)c(-c2ccc3ncc(C#N)n3c2)n1CC(F)F` [297′], the IC50 at HIS-TGF-βR2 WT (setting [1]) is greater than 15 µM; on HIS-TGF-βR1 T204D (setting [2]), 0.542 µM.

For `N#Cc1cnc2ccc(-c3c(-c4cccc(OC(F)(F)F)c4)ncn3CC(F)F)nn12` [259′, 6-(1-(2,2-difluoroethyl)-4-(3-(trifluoromethoxy)phenyl)-1H-imidazol-5-yl)imidazo[1,2-b]pyridazine-3-carbonitrile], the IC50 is greater than 15 µM at HIS-TGF-βR2 WT (setting [1]) and 0.001 µM at HIS-TGF-βR1 T204D (setting [2]).

Take `CC(C)Oc1ccc(-c2ncn(CC(F)F)c2-c2ccc3ncc(C#N)n3n2)cc1` [263′, 6-(1-(2,2-difluoroethyl)-4-(4-isopropoxyphenyl)-1H-imidazol-5-yl)imidazo[1,2-b]pyridazine-3-carbonitrile]: the half-inhibitory concentration (IC50) at HIS-TGF-βR2 WT (setting [1]) is greater than 15 µM; at HIS-TGF-βR1 T204D (setting [2]), 0.171 µM.

Regarding `N#Cc1cnc2ccc(-c3c(-c4cccc(C(F)(F)F)c4)ncn3CC(F)F)nn12` [243′, 6-(1-(2,2-difluoroethyl)-4-(3-(trifluoromethyl)phenyl)-1H-imidazol-5-yl)imidazo[1,2-b]pyridazine-3-carbonitrile], the IC50 was greater than 15 µM on HIS-TGF-βR2 WT (setting [1]) and 0.0018 µM on HIS-TGF-βR1 T204D (setting [2]).

In the case of `N#Cc1cnc2ccc(-c3c(-c4ccc(F)c(Cl)c4)ncn3C3CCOCC3)nn12` [48′, 6-(4-(3-chloro-4-fluorophenyl)-1-(tetrahydro-2H-pyran-4-yl)-1H-imidazol-5-yl)imidazo[1,2-b]pyridazine-3-carbonitrile], the IC50 on HIS-TGF-βR2 WT (setting [1]) was greater than 15 µM; at HIS-TGF-βR1 T204D (setting [2]) it was 0.0031 µM.

With `NC(=O)c1cnc2ccc(-c3c(-c4ccc(F)c(Cl)c4)ncn3C3CC(F)(F)C3)cn12` [121′, 6-(4-(3-chloro-4-fluorophenyl)-1-(3,3-difluorocyclobutyl)-1H-imidazol-5-yl)imidazo[1,2-a]pyridine-3-carboxamide], the IC50 on HIS-TGF-βR2 WT (setting [1]) is greater than 15 µM; at HIS-TGF-βR1 T204D (setting [2]), 0.0011 µM.

As to `COCC(C1CC1)n1cnc(-c2ccc(F)cc2)c1-c1ccc2ncc(C#N)n2n1` (centres unmarked) [16′, 6-(1-(1-cyclopropyl-2-methoxyethyl)-4-(4-fluorophenyl)-1H-imidazol-5-yl)imidazo[1,2-b]pyridazine-3-carbonitrile], the IC50 at HIS-TGF-βR2 WT is greater than 15 µM; at HIS-TGF-βR1 T204D, 0.0023 µM.
